Measurements as given in US20260263643A1, “BI-SPECIFIC ADAPTERS AND THEIR USE WITH UNIVERSAL CAR-T CELLS IN THE TREATMENT OF CAIX-EXPRESSING TUMORS” (Purdue Research Foundation, priority 2023, published 2026).
“Also recorded” adds a separate entry of the source.

What was measured:
HT29 cells = experiment: Total binding and FITC surface exposure of CAIX bispecific adapters on HT29 cells; type: cell-based; conditions: 1 μM adapter, 1 hour room temperature; FIG. 3A
Method: (§1) HT29 cells or MDA-CAIX cells were incubated with 1 μM bispecific adapters with different ligands to CAIX and different polyethylene glycol (PEG) linkers in complete RPMI medium (RPMI+10% FBS) for one hour at room temperature. Free compounds were washed away, and fluorescent intensity of fluorescein isothiocyanate (FITC) was analyzed by flow cytometry.
(§2) To analyze the surface exposure of the FITC moiety, the stained cells were incubated with allophycocyanin (APC)-anti-FITC antibody on ice for 30 minutes. Then the cells were washed, and the fluorescent intensity of APC was analyzed by flow cytometer.

MDA-CAIX cells [1] = experiment: Total binding and FITC surface exposure of CAIX bispecific adapters on MDA-CAIX cells; type: cell-based; conditions: 1 μM adapter, 1 hour room temperature; FIG. 3C
Method: as §1, §2

MDA-CAIX tumor cells = experiment: Retention and surface exposure of CAIX bispecific adapters in MDA-CAIX tumor cells from treated mice; type: in vivo, mouse; conditions: for CAIX levels of tumor cells (MFI of FITC after staining with 100 nM meta-CAL-PEG6-FITC in vitro): MDA-CAIX tumors from treated mice, FIG. 11C
Method: MDA-CAIX tumors from mice in different treatment groups were dissected and digested into single cells 24 hours after the last injections with CAIX bispecific adapters at 500 nmol/kg. The total retention of the bispecific adapters was determined by the FITC fluorescence intensity analyzed by flow cytometry. To estimate the CAIX protein levels in the tumor cells, the cells were stained with 100 nM meta-CAL-PEG6-FITC for 1 hour at room temperature and analyzed by flow cytometry. The FITC exposure of the bispecific adapters on the tumor cell surface was analyzed by flow cytometry after staining with APC-anti-FITC antibody on ice for 30 minutes. Surface exposure of FITC was also analyzed in the cells stained with 100 nM meta-CAL-PEG6-FITC.

HT29 tumor = experiment: In vivo efficacy of CAIX targeting bispecific adapters on HT29 tumor model; set-up: species or system mouse; conditions: NSG mice, subcutaneous HT29, 10 million anti-FITC CAR-T cells plus adapter; FIG. 7B
Method: (§3) HT29 cells (1.5 million) were implanted into each NOD scid gamma (NSG) mouse by subcutaneous injection. When the tumor volumes reached about 100 mm^3, the treatment groups were injected with 10 million anti-FITC CAR-T cells and bispecific adapters as shown in FIG. 7A. The tumor volume and body weight were monitored regularly. Tumor volume was calculated using the formular: (length*width^2)/2.

MDA-CAIX tumors = experiment: In vivo efficacy of CAIX targeting bispecific adapters on MDA-CAIX tumor model; set-up: species or system mouse; conditions: NSG mice, subcutaneous MDA-CAIX, 10 million anti-FITC CAR T-cells plus adapter; FIG. 10B
Method: (§4) MDA-CAIX cells (5 million) were implanted into each NSG mouse by subcutaneous injection. When the tumor volumes reached about 100 mm^3, the treatment groups were injected with 10 million anti-FITC CAR T-cells and indicated bispecific adapters as shown in FIG. 10A. The tumor volume and body weight were monitored regularly. Tumor volume was calculated using the formular: (length*width^2)/2.

[2] = tested on: anti-FITC CAR-T cells co-cultured with MDA-CAIX cells; experiment: Bispecific adapter mediated IFNγ release from anti-FITC CAR-T cells co-cultured with MDA-CAIX cells (ELISA); type: cell-based; conditions: adapter concentration between 0.001 nM and 1 nM; MDA-CAIX co-culture; FIGS. 4B, 5B
Method: (§5) Anti-FITC CAR-T cells were incubated with an equal number of MDA-CAIX cells in the presence of bispecific adapters at different concentrations. The number of MDA-CAIX cells was determined at the end of the co-culture, and the percentage of cell lysis was calculated using the following formula: [(number of untreated cells−number of treated cells)/number of untreated cells]*100%.
Secretion of interferon gamma (IFNγ) from anti-FITC CAR-T cells was analyzed by enzyme-linked immunosorbent assay (ELISA) using the supernatants of the co-cultured medium at the end of the co-culture.
Secretion of IFNγ from anti-FITC CAR T cells was analyzed by ELISA using the supernatants of the co-cultured medium at the end of the co-culture.
Secretion of IFNγ from anti-FITC CAR T cells was analyzed by ELISA using the supernatants of the co-cultured medium at the end of the co-culture study.

HT29 tumor cells = experiment: Retention and surface exposure of CAIX bispecific adapters in HT29 tumor cells from injected mice; type: in vivo, mouse; conditions: 500 nmol/kg, 24 hours after injection, APC-anti-FITC staining; FIG. 8C
Method: HT29 tumor bearing mice were injected with CAIX bispecific adapters at 500 nmol/kg. After injection (24 hours later), the tumors were dissected and digested into single cells. The total retention of the bispecific adapters was determined by the FITC fluorescence intensity analyzed by flow cytometry. To analyze the FITC exposure of the bispecific adapters on the tumor cell surface, the digested tumor cells were stained with APC-anti-FITC antibody on ice for 30 minutes. After washing away unbound antibody, the fluorescent intensity of APC was analyzed by flow cytometry.

MDA-CAIX cells [3] = experiment: Bispecific adapter mediated anti-FITC CAR-T cell cytotoxicity to MDA-CAIX cells; type: cell-based
Method: as §5
as §5, with “presence of the bispecific adapters” for “presence of bispecific adapters”
Anti-FITC CAR T cells were incubated with an equal number of MDA-CAIX cells in the presence of the bispecific adapters at different concentrations. The number of MDA-CAIX cells were determined at the end of the co-culture and the percentage of cell lysis was calculated using the following formula: [(number of untreated cells−number of treated cells)/number of untreated cells]*100%.

[4] = Body weight change of mice in HT29 tumor model; type: in vivo, mouse; conditions: HT29 tumor-bearing NSG mice treated with anti-FITC CAR-T cells plus adapter; FIG. 7C
Method: as §3

T cells = experiment: T cell counts in the blood and HT29 tumors from mice at end of treatments; set-up: species or system mouse; conditions: end of HT29 in vivo study
Method: At the end of the in vivo study on HT29 solid tumor model described in FIGS. 7A-7C, blood was collected from the mice, and the red blood cells in the blood were lysed by using red blood cell lysis buffer (BioLegend, San Diego, CA). The remaining cells were stained with anti-human CD3 antibody on ice for 30 minutes. The number of T cells was analyzed by flow cytometry. To analyze tumor-infiltrated T cells, tumors were dissected and digested to single cells. The digested cells were stained with Zombie Violet cell viability staining dye (BioLegend. San Diego, CA) and anti-human CD3 antibody. The percentage of CD3 T cells in total live cells was analyzed by flow cytometry.

[5] = tested on: anti-FITC CAR-T cells co-cultured with HT29 cells; experiment: Bispecific adapter mediated anti-FITC CAR-T cell IFNγ release when co-cultured with HT29 cells (ELISA); type: cell-based; conditions: HT29 cells at 1:5 ratio, 40 hours
Method: (§6) Anti-FITC CAR-T cells were incubated with HT29 cells at 1:5 ratio in the presence of the bispecific adapters at different concentrations for 40 hours. Secretion of IFNγ from anti-FITC CAR-T cells was analyzed by ELISA using the supernatants of the co-cultured medium at the end of the co-culture study.
as §6, with “CAR T” for “CAR-T”

[6] = Body weight change of mice in KB tumor model; type: in vivo, mouse; conditions: KB tumor-bearing NSG mice; FIG. 16C
Method: as §4, with “KB” for “MDA-CAIX”, “(1” for “(5”, “50” for “100”, “CAR-T cells” for “CAR T-cells”, “16A.” for “10A.”, “formula:” for “formular:”

[7] = low concentrations (between 0.001 nM and 0.1 nM), FIG. 5A

SMILES	total binding to HT29 cells (MFI of FITC) (HT29 cells)	CAIX levels of tumor cells (MFI of FITC after staining with 100 nM meta-CAL-PEG6-FITC in vitro) (MDA-CAIX tumor cells)	growth of HT29 tumor (tumor volume) (HT29 tumor)	growth of MDA-CAIX tumors (tumor volume) (MDA-CAIX tumors)	IFNγ release from anti-FITC CAR-T cells [2]	surface retention and FITC exposure in HT29 tumors (MFI of APC-anti-FITC) (HT29 tumor cells)	efficacy of anti-FITC CAR-T cell cytotoxicity, lysis (%) (MDA-CAIX cells [3]; [7])	also measured
NS(=O)(=O)c1nnc(NC(=O)CCCCCCCNC(=S)Nc2ccc(-c3c4ccc(=O)cc-4oc4cc(O)ccc34)c(C(=O)O)c2)s1 [Aza-FITC]	better total binding to HT29 cells than the other adapters	slightly higher CAIX levels than tumors treated with meta-CAL-FITC with PEG3 or PEG6	slightly inhibited the growth of HT29 tumor					total binding to MDA-CAIX cells (MFI of FITC) (MDA-CAIX cells [1]): better total binding to MDA-CAIX cells
NS(=O)(=O)c1c(F)c(F)c(S(=O)(=O)CCC(=O)NCCOCCOCCOCCNC(=S)Nc2ccc(-c3c4ccc(=O)cc-4oc4cc(O)ccc34)c(C(=O)O)c2)c(NC2CCCCCCC2)c1F [meta-CAL-PEG3-FITC]	better total binding to HT29 cells than the other adapters		slightly inhibited the growth of HT29 tumor	slightly inhibited the growth of MDA-CAIX tumors				
NS(=O)(=O)c1c(F)c(F)c(S(=O)(=O)CCC(=O)NCCOCCOCCOCCOCCOCCOCCNC(=S)Nc2ccc(-c3c4ccc(=O)cc-4oc4cc(O)ccc34)c(C(=O)O)c2)c(NC2CCCCCCC2)c1F [meta-CAL-PEG6-FITC]					higher level of IFNγ release from anti-FITC CAR-T cells than ortho-CAL-PEG6-FITC and Aza-FITC; also recorded: higher levels of IFNγ release from anti-FITC CAR-T cells than meta-CAL-PEG3-FITC	better FITC exposure than meta-CAL-PEG3-FITC	higher efficacy than meta-CAL-PEG3-FITC	surface retention and FITC exposure in MDA-CAIX tumors (MFI of APC-anti-FITC) (MDA-CAIX tumor cells; 24 hours after last injection at 500 nmol/kg, FIG. 11D): slightly better surface retention and FITC exposure than the other compounds; efficacy of anti-FITC CAR-T cell cytotoxicity, lysis (%) (MDA-CAIX cells [3]; adapter between 0.001 nM and 10 nM, equal number of CAR-T and MDA-CAIX cells, FIG. 4A): higher than ortho-CAL-PEG6-FITC and Aza-FITC
NS(=O)(=O)c1c(F)c(F)c(S(=O)(=O)CCC(=O)NCCOCCOCCOCCOCCOCCOCCOCCOCCOCCNC(=S)Nc2ccc(-c3c4ccc(=O)cc-4oc4cc(O)ccc34)c(C(=O)O)c2)c(NC2CCCCCCC2)c1F [meta-CAL-PEG9-FITC]			significantly inhibited the growth of HT29 tumor		higher levels of IFNγ release from anti-FITC CAR-T cells than meta-CAL-PEG3-FITC	better FITC exposure than meta-CAL-PEG3-FITC	higher efficacy than meta-CAL-PEG3-FITC	body weight change [4]: lost body weight; T cell counts in blood (T cells; anti-human CD3 staining, FIG. 9A): more T cells than the blood from other treatment groups; tumor-infiltrated T cells (CD3+ T cells/live cells) (T cells; digested tumors, FIG. 9B): more tumor-infiltrated T cells; IFNγ released from anti-FITC CAR-T cells ([5]; low concentrations (<0.1 nM), FIG. 15): highest level of IFNγ released from anti-FITC CAR-T cells
NS(=O)(=O)c1c(F)c(F)c(SCCC(=O)NCCOCCOCCOCCOCCOCCOCCNC(=S)Nc2ccc(-c3c4ccc(=O)cc-4oc4cc(O)ccc34)c(C(=O)O)c2)c(F)c1NC1CCCCCCC1 [ortho-CAL-PEG6-FITC]		complete eradication of CAIX^+ tumor cells by CAR T cells		significantly inhibited the growth of MDA-CAIX tumors				staining of anti-FITC antibody (MFI of APC-anti-FITC after staining with 100 nM meta-CAL-PEG6-FITC in vitro) (MDA-CAIX tumor cells; MDA-CAIX tumor cells from treated mice, FIG. 11E): almost no staining of anti-FITC antibody; body weight change [6]: did not induce significant body weight loss; also recorded: didn't induce significant body weight loss; IFNγ released from anti-FITC CAR-T cells ([5]; ELISA, FIGS. 14, 15): lower levels of IFNγ released from anti-FITC CAR-T cells
